In patent US5622983A, “N-substituted cycloalkyl and polycycloalkyl α-substituted Trp-Phe- and phenethylamine derivatives” (Warner-Lambert Company, priority 1995, dated 1997):

Experiments:
[1] = Light/dark exploration test (anxiolytic activity); type: in vivo, mouse
Experimental: In FIG. 2 the number of mice was 5 and the pretreatment time was 40 minutes. The compound was given p.o. in 0.1, 1, and 10 mg/kg doses.
The apparatus was an open-topped box, 45 cm long, 27 cm wide, and 27 cm high, divided into a small (2/5) area and a large (3/5) area by a partition that extended 20 cm above the walls. There was a 7.5×7.5 cm opening in the partition at floor level. The small compartment was painted black and the large compartment white. The floor of each compartment was marked into 9 cm squares. The white compartment was illuminated by a 100-watt tungsten bulb 17 cm above the box and the black compartment by a similarly placed 60-watt red bulb. The laboratory was illuminated with red light.
All tests were performed between 13 hundred hours, 0 minutes and 18 hundred hours, 0 minutes. Each mouse was tested by placing it in the center of the white area and allowing it to explore the novel environment for five minutes. Its behavior was recorded on videotape and the behavioral analysis was performed subsequently from the recording. Five parameters were measured: the latency to entry into the dark compartment, the time spent in each area, the number of transitions between compartments, the number of lines crossed in each compartment, and the number of rears in each compartment.
Drugs were dissolved in water or saline and administered either subcutaneously, intraperitoneally, or by mouth (PO) via a stomach needle.

[2] = Aspirin-induced gastric damage; type: in vivo, rat; details: 15 mg/kg PO
Experimental: Aspirin-induced gastric damage was assessed in groups of 10 rats each.
All animals were fasted for 24 hours before and throughout the experiment. Drug or vehicle was given 10 minutes before an oral dose of 1 mL of a 45-mg/mL suspension of aspirin in 0.5% carboxymethylcellulose (CMC).
The animals were sacrificed five hours after aspirin administration and the stomachs removed and opened for examination.

[3] = Palatable Diet Feeding assay; type: in vivo, rat; details: dose producing 50% of the maximum effect possible (zero food intake)
Experimental: In the Palatable Diet Feeding assay, adult male Hooded Lister rats weighing between 200-400 g were housed individually and trained to eat a palatable diet. This diet consisted of Nestles sweetened condensed milk, powdered rat food and rat water which when blended together set to a firm consistency. […] The intake of palatable diet was measured by weighing the food container before and after the 30-minute access period (limits of accuracy 0.1 g). Care was taken to collect and correct for any spillage of the diet. Rats had free access to pellet food and water except during the 30-minute test period.
After the training period, dose-response curves were constructed for CCK8 and several representative compounds of the present invention (n=8-10 rats per dose level).

[4] = target: T1, Central CCK Receptors (Mus musculus, UniProt P56481); assay: Binding to central CCK receptors (tritiated-pentagastrin displacement, cerebral cortical membranes); details: read-out: Binding to Central CCK Receptors Ki; displacement of 2 nM tritiated-pentagastrin, mouse cerebral cortical membranes
T1 sequence (P56481 1-453): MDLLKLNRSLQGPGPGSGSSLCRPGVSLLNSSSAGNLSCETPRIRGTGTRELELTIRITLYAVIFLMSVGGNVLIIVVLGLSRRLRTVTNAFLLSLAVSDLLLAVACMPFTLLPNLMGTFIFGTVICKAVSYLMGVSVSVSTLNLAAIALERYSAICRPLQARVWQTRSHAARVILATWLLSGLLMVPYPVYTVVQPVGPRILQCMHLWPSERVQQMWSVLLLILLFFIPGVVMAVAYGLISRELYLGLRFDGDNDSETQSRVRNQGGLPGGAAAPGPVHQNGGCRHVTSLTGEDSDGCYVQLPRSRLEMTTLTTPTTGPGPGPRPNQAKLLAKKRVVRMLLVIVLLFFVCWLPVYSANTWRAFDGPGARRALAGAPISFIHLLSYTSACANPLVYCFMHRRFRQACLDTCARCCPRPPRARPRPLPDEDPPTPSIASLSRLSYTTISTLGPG
Experimental: The biological activity of compounds of the present invention was evaluated employing an initial screening test which rapidly and accurately measured the binding of the tested compound to known CCK receptor sites.
The resulting suspension was centrifuged, the supernate was discarded, and the pellet was washed by resuspension in Tris-HCl buffer followed by recentrifugation.
In saturation studies, cerebral cortical membranes were incubated at 23° C. for 120 minutes in a final volume of 500 μliter of Hepes incubation buffer (pH 7.2) together with 0.2-20 nM tritiated-pentagastrin (Amersham International, England).
In each case, the nonspecific binding was defined as that persisting in the presence of the unlabeled octapeptide CCK26-33 (10^-6 M).
Following incubation, radioactivity bound to membranes was separated from that free in solution by rapid filtration through Whatman GF/B filters and washed three times with 4 mL of ice cold Tris-HCl buffer.
The specific binding to CCK receptor sites was defined as the total bound tritiated-pentagastrin minus the amount of tritiated-pentagastrin bound in the presence of 10^-6 octapeptide, CCK26-33.
The inhibition constant (Ki) of the test compound was then calculated according to the Cheng-Prusoff equation: [formula] where [L] is the concentration of radiolabel and Ka is the equilibrium dissociation constant.

[5] = tested on: pentagastrin stimulated gastric acid secretion; assay: Pentagastrin stimulated gastric acid secretion (Ghosh and Schild perfused stomach); type: in vivo, rat; details: 1 nmole/kg pentagastrin
Experimental: They were anesthetized with urethane (1.5 g/kg IP) and the trachea cannulated to aid spontaneous respiration. The stomach was perfused continuously using a modification of the original method of Ghosh & Schild in "Continuous recording of acid secretion in the rat", Br. J. Pharmac. […] The fluid was propelled by a roller pump (Gilson, Minipuls 2), through heating coils to bring its temperature to 37°±1° C. The perfusion fluid was collected by the fundic collecting funnel and passed to a pH electrode connected to a Jenway pH meter (PHM6). An output was taken from the pH meter to a Rikadenki chart recorder for the on-line recording of the pH of the gastric perfusate.
Pentagastrin was stored as a frozen aliquot and diluted to the required concentrations with sterile 0.9% w/v NaCl. Novel compounds were dissolved in sterile 0.9% w/v NaCl on the day of the experiment. Drugs were administered IV through a cannulated jugular vein as a bolus in a dose volume of 1 mL/kg washed in with 0.15 mL 0.9% w/v NaCl. Basal pH was allowed to stabilize before administration of compounds was begun.

[6] = Withdrawal from long-term drug or alcohol treatment, mouse light/dark box test; type: in vivo; details: 24-hour withdrawal
Experimental: The effect of the compounds of the instant invention is illustrated, for example, in the mouse "light/dark box" test in FIGS. 5-12.
In FIG. 5, five animals were given nicotine, 0.1 mg/kg i.p.b.d. for 14 days. After a 24-hour withdrawal period, compound (20) was given at 1.0 mg/kg i.p.b.d.
FIG. 6 illustrates the effect of long-term treatment and withdrawal from nicotine using compound (20A). Five mice were given nicotine at 0.1 mg/kg i.p.b.d. for 14 days. After a withdrawal period of 24 hours, compound (20A) was given at 10 mg/kg i.p.b.d.
FIG. 7 illustrates the effect of long-term treatment and withdrawal from diazepam with intervention with compound (20). Five mice were given diazepam, at 10 mg/kg i.p.b.d. for seven days. Withdrawal was for a 24-hour period; compound 20 was given at 1.0 mg/kg i.p.b.d.
FIG. 8 illustrates the effect of compound (20A) on the long-term treatment and withdrawal from diazepam. Five mice were given diazepam at 10 mg/kg i.p.b.d. for seven days. After a withdrawal period of 24 hours, compound (20A) was given at 10 mg/kg i.p.b.d.
FIG. 9 illustrates the effect compound (20A) on the long-term treatment and withdrawal from alcohol. Five mice were given alcohol in drinking water 8% w/v for 14 days. After a withdrawal period of 24 hours, compound (20) was given at 1.0 mg/kg i.p.b.d.
Five mice were given alcohol in drinking water, 8% w/v for 14 days. After a withdrawal period of 24 hours, compound (20A) was given at 10 mg/kg i.p.b.d.
FIG. 11 illustrates the effectiveness in the long-term treatment and withdrawal from cocaine. Five mice were given cocaine as 1.0 mg/kg i.p.b.d. for 14 days.
Five mice were given cocaine at 1.0 mg/kg i.p.b.d. for 14 days after a withdrawal period of 24 hours, compound (20a) was given at 1.0 mg/kg i.p.b.d.

[7] = Antagonism of intra-accumbens amphetamine hyperactivity (antipsychotic activity); type: in vivo, rat; details: 20 mg/kg or 30 mg/kg intraperitoneal; amphetamine 20 μg
Experimental: Male Sprague Dawley (CD) Bradford strain rats were used. The rats were housed in groups of five at a temperature of 21°±2° C. on a 12 hour light-dark cycle of lights-on between 07 hours 00 minutes and […]. Rats were fed CRM diet (Labsure) and allowed water ad libitum.
Rats were anesthetized with chloral hydrate (400 mg/kg SC) and placed in a Kopf stereotaxic frame. Chronically indwelling guide cannulae (constructedof stainless steel tubing 0.65 mm diameter held bilaterally in Parspex holders) were implanted using standard stereotaxic techniques to terminate 3.5 mm above the center of the nucleus accumbens (Ant. 9.4, Vert. 0.0, Lat. 1.6) or 5.0 mm above the central nucleus of the amygdala (Ant. 5.8, Vert. -1.8, Lat. ±4.5) (atlas of De Groot, 1959). The guides were kept patent during a 14-day recovery period using stainless steel stylers, 0.3 mm diameter, which extended 0.5 mmbeyond the guide tips.
Rats were manually restrained and the stylers removed. Intracerebral injection cannulae, 0.3 mm diameter, were inserted and drugs delivered in a volume of 0.5 μl over 5 seconds (a further 55 seconds was allowed for deposition) from Hamilton syringes attached via polythene tubing to the injection units. […]
The abilities of the compounds (20) and (20A) to inhibit the hyperactivity caused by the injection of amphetamine into the nucleus accumbens of the rat was measured. […]

CN1C(=O)CN=C(c2ccccc2)c2cc(Cl)ccc21 [Diazepam, reference compound]
effect on crossings compared with compound (20) ([1]; 0.25 mg/kg IP, same experiment): effect identical to compound (20)

CNC(=C[N+](=O)[O-])NCCSCc1ccc(CN(C)C)o1 [ranitidine, reference compound]
inhibition of ulcer formation [2]: 74% | ulcer score ([2]; ±SD, saline control 12.1±6.85): 3.2±2.35

CC(Cc1c[nH]c2ccccc12)(NC(=O)OC1C2CC3CC(C2)CC1C3)C(=O)NC(COC(=O)CCC(=O)O)Cc1ccccc1 (stereo not drawn) [Example 16, [R-(R*,S*)]-2-[[3-(1H-indol-3-yl)-2-methyl-1-oxo-2-[[(tricyclo[3.3.1.1^3,7 dec-2-yloxy)carbonyl]amino]propyl]amino]-3-phenylpropyl butanedioate]
Inhibition of Feeding on Rat Palatable Diet Assay I.P. MPE50 [3]: 10.5 mg/kg | Ki [4]: 30 nM | reversibility of the antagonism [5]: reversible with full recovery of the response to pentagastrin | effect on stimulation of gastric acid secretion produced by pentagastrin ([5]; compound IV, anesthetized rat): attenuated | gastric acid secreted in response to pentagastrin after compound ([5]; cumulative dose of 1.1 μmole/kg, initial pentagastrin response 254 μmoles/1 H^+): 128 μmoles/1 H^+

CC(Cc1c[nH]c2ccccc12)(NC(=O)OC1CC2CCC1(C)C2(C)C)C(=O)NCC(NC(=O)CCC(=O)O)c1ccccc1 (stereo not drawn) [Example 20A, [1S -[1α,2β[S*(S*)], 4α]]-4-[[2-[[3-(1H-indol-3-yl)-2-methyl-1-oxo-2-[[[(1,7,7-trimethylbicyclo[2.2.1]hept-2-yl)oxy]carbonyl]amino]propyl]amino]-1-phenylethyl]amino]-4-oxobutanoic acid]
Ki [4]: 3 nM | time spent in the light section after withdrawal from alcohol (FIG. 10) ([6]; alcohol 8% w/v in drinking water 14 days, compound 10 mg/kg i.p.b.d.): increased time spent in the light section | time spent in the light section after withdrawal from cocaine (FIG. 12) ([6]; cocaine 1.0 mg/kg i.p.b.d. 14 days, compound 1.0 mg/kg i.p.b.d.): increase in time spent in the light section | time spent in the light section after withdrawal from diazepam (FIG. 8) ([6]; diazepam 10 mg/kg i.p.b.d. seven days, compound 10 mg/kg i.p.b.d.): demonstrates the effectiveness of the compound | time spent in the light area after withdrawal from nicotine (FIG. 6) ([6]; nicotine 0.1 mg/kg i.p.b.d. 14 days, compound 10 mg/kg i.p.b.d.): increase of time spent in the light area | hyperactivity caused by intra-accumbens injection of amphetamine [7]: reduced the hyperactivity

C[C@](Cc1c[nH]c2ccccc12)(NC(=O)OC1C2CC3CC(C2)CC1C3)C(=O)NC[C@H](NC(=O)/C=C/C(=O)O)c1ccccc1 (relative stereo) [Example 22, [R-[R*,R*-(E)]]-4-[[2-[[3-(1H-indol-3-yl)-2-methyl-1-oxo-2-[[(tricyclo[3.3.1.1^3,7]dec-2-yloxy)carbonyl]amino]propyl]amino]-1-pbenylethyl]amino]-4-oxo-2-butenoic acid]
time spent in the light area of the test box ([1]; SC): significantly (p <0.01) increased the time spent in the light area | anxiolytic activity by the subcutaneous route ([1]; subcutaneous): active

CC(Cc1c[nH]c2ccccc12)(NC(=O)OC1C2CC3CC(C2)CC1C3)C(=O)NCC(OC(=O)CCC(=O)O)c1ccccc1 (stereo not drawn) [Example 17, 2-[[3-(1H-indol-3-yl)-2-methyl-1-oxo-2-[[(tricyclo-[3.3.1.1.^3,7]dec-2-yloxy)carbonyl]amino]propyl]amino]-1-phenylethyl butanedioate]
Inhibition of Feeding on Rat Palatable Diet Assay I.P. MPE50 [3]: 13.1 mg/kg | Ki [4]: 63 nM
